Results on 4 molecules are retold here after publication PMC9088798, “An Approach to Derive Functional Peptide Inhibitors of Transcription Factor Activity” (JACS Au, 2022).

As usually defined, the IC50 is the concentration at which inhibition is half-maximal.

Assay [1] relates to cJun bZIP / TRE sites in TRE-mDHFR gene. Put plainly: Transcription block survival (TBS) colony counting in E. coli. The format is cell-based, human cJun, expressed in E. coli. The following applies: three experimental repeats. Here is the method:
Figure 3 Transcription block survival (TBS) assay to derive functionally active cJun inhibitors. (A) Schematic illustrating the design and operation of TBS. (B) Controlled numbers of E. coli expressing the indicated proteins were plated on selective media and growth rates were calculated by counting colony-forming units. […] (2) A small effect on colony numbers is observed when cJun bZIP is additionally expressed. (3) TRE-mDHFR can replace the inhibited ecDHFR with colony count lower than for WT as expected. […] Although (6) cFos LZ and (7) FosW are known cJun-binders, they are unable to effectively dissociate the cJun bZIP from TRE DNA. However, (8) A-FosW and the TBS-derived hit (9) HingeW remove TRE-mDHFR transcriptional blocks to restore cell survival. Bar charts represent averages of three experimental repeats. Errors are shown as one standard deviation. Selected P values from a t-test are indicated (*P ≤ 0.05; **P ≤ 0.01; ****P ≤ 0.0001) with values for all possible comparisons within the bar chart reported in Figure S7. Serial dilutions were used to quantify colony numbers where required. Also shown are representative plate images and schematics to illustrate the effect upon TRE-mDHFR transcription. […]
Library Construction and TBS Assay: Library inserts were produced using PCR fill-in reactions from synthesised primers (Sigma) with degenerate codons at the desired positions to produce the correct residue options. The library was subcloned using SacI and AscI sites into the pET24a plasmid containing A-FosW. The primers used were cJun- […]
-3’ and cJun-Hinge-Lib_R: 5’-
-3’. The library DNA was transformed into NEB 10-beta electrocompetent E. coli cells. The following equation was utilised to determine library […]
coverage by the number of single colonies: where E is the percentage […] of the library missing, m is the number of colonies collected and n is the library size. This […]
covered. Library DNA quality was assessed by sequencing both the DNA pool and a number of single colonies to show degenerate codons in the correct positions in the pool and to show a diversity of library members from single colonies. The pool of library DNA was transformed into BL21 Gold cells already containing pES300d-TRE-mDHFR and […]
(§1) µM) alongside ampicillin, kanamycin and chloramphenicol to maintain the required plasmids, and IPTG (1 mM) to induce protein expression. The library transformants were […]
however a lower stringency is used initially before selection is increased in later steps.
Colonies from this first round of selection were pooled and serially grown in liquid culture at starting OD600 of 0.05 and grown at 37°C with shaking at 200 rpm until the OD600 […]
increased to the optimum 4 µM in subsequent passages. Bacteria containing the most effective functional antagonists were expected to produce higher levels of TRE-mDHFR which provides a growth advantage, and these will dominate the culture. At each passage step, a sample of the culture was plated on LB agar (supplemented with antibiotics to maintain plasmids) to select and sequence individual colonies, and a DNA pool was also sequenced. This allows the occurrence of library members to be monitored as winner sequences are selected for. Assay Validation experiments utilised a modified assay methodology whereby overnight cultures from glycerol stocks of the Control Strains (Figure S6) were diluted to OD600=0.5 and 50 µL was plated on a selective M9 minimal […]

A further assay has as its target T1, cJun/TRE DNA interaction (Homo sapiens, UniProt P05412).
T1 construct: The human cJun bZIP domain spans from Arg252 to Leu308; His-SUMO (N, cleaved yes); AS cap (two residues Ala-Ser) (N); GAP cap (three residues Gly-Ala-Pro) (C); made in house; host or cells: E. coli (pET21-His-SUMO plasmid)
Put plainly: CD TRE DNA peak shift, antagonism of cJun/TRE DNA interaction. The following applies: cJun 20 μM, TRE DNA 5 μM, DNA peak ~281 nm, Hill equation; three independent experiments, one SD; pH 7.4. Format: biochemical. Here is the method:
The binding of cJun to TRE DNA can be observed by monitoring a DNA absorbance peak in the CD spectrum centered at ∼281 nm.[44] […] The addition of cJun (20 μM) to TRE DNA (5 μM) decreases this DNA peak by 55% as the cJun engages its target TRE site and alters the DNA structure (Figure 6A). Subsequent titration of HingeW into this bound cJun/TRE DNA mixture reverses the peak shift, with the peak increasing as DNA is released.
Figure 6 HingeW antagonizes cJun/TRE DNA interaction more effectively than A-FosW. (A) CD spectra showing a shift in the TRE DNA peak at ∼281 nm upon addition of cJun, which is reversed by the titration of HingeW into the sample, as HingeW sequesters the cJun in a nonfunctional heterodimer. […] EMSA showing the (C) unbound TRE DNA band shift upon addition of cJun and the subsequent restoration of the unbound DNA band intensity upon titration of either (D) HingeW or (E) A-FosW. (F). For both CD and EMSA, data was averaged from three independent experiments and the plotted error bars indicate one standard deviation. […]
as §1
increased to the optimum 4 µM in subsequent passages. […] This allows the occurrence of library members to be monitored as winner sequences are selected for. […]

A further assay has as its system WT-mDHFR. Put plainly: DHFR activity assay (NADPH turnover at 340 nm), WT-mDHFR. The format is biochemical, murine. Here is the method: (§2) (A) Fifteen TRE sites were introduced into the mDHFR gene (2 silent and 13 substitutions) to allow for a cJun-induced transcriptional block. […] Change in absorbance at 340 nm was measured to determine the rate of NADPH turnover by (B) WT-mDHFR and (C) TRE-mDHFR with or without the substrate DHF. […] Specific activity was calculated from the linear initial rate (first 2.5 min for WT-mDHFR, first 10 min for TRE-mDHFR; +NADPH only reaction blank subtracted). Data are averages from triplicate experiments with errors shown as one standard deviation.
(§3) Jupiter Proteo column (4-μm particle size, 90 Å pore size, 250 × 10 mm; Phenomenex) using a water:acetonitrile gradient (0.1% TFA). Peptides without a SUMO tag, were concentrated after Histrap elution and HPLC purified. […]
(§4) or Mtx (1 µM in reaction). Reactions were initiated by the addition of DHF (50 µM in reaction plus a blank reaction with no DHF) and the absorbance at 340 nm of samples was measured using a Varian Cary 50 UV-Vis spectrophotometer. The specific activity (∆OD/minsample― ∆OD/minblank) was calculated using the following equation. Specific activity = 12.3× mg protein Library Construction and TBS Assay: Library inserts were produced using PCR fill-in reactions from synthesised primers (Sigma) with degenerate codons at the desired positions to produce the correct residue options. […]

In the next assay the test system is TRE-mDHFR. Put plainly: DHFR activity assay (NADPH turnover at 340 nm), TRE-mDHFR. The format is biochemical, murine. Here is the method: as §2, §3, §4

Where no end group is shown, it is not given here.

T1 sequence (P05412 252-308): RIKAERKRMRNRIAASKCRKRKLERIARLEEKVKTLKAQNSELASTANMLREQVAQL

As to “cJun LZ: cJun LZ only construct in which the 25 residue DBD was deleted; Ile277 to Leu308 (IARLEEKVKTLKAQNSELASTANMLREQVAQL; UniProt P05412 277-308, looked up, fragment) [reference compound]”, the “effect of cJun LZ (DBD deleted) on colony formation” value in assay [1] (TRE-mDHFR + cJun LZ vs TRE-mDHFR only, P = 0.1) was “did not affect bacterial colony formation”.

As for “MASLDELQAEIEQLEERNYALRKEIEDLQKQLEKLGAPHHHHHH [FosW, reference compound]”, the IC50 on cJun/TRE DNA interaction worked out at 119.8 ± 1.1 µM.

`CN(Cc1cnc2nc(N)nc(N)c2n1)c1ccc(C(=O)N[C@@H](CCC(=O)O)C(=O)O)cc1` [MTX, methotrexate, reference compound]: the “inhibition by MTX” value in the assay on WT-mDHFR and in the assay with TRE-mDHFR was “clear inhibition of the reaction” in each case.

Turning to “cFos LZ: human cFos leucine zipper domain, Thr162 to Leu193 [reference compound]”, the “restoration of colony numbers of transcriptionally blocked cells” value in assay [1] (TRE-mDHFR + cJun bZIP + peptide vs TRE-mDHFR + cJun bZIP, M9 + TMP + IPTG, P > 0.05) was “no significant increase in colony numbers”.
